Data from ChEMBL document CHEMBL1150513, “A Hammett correlation for CC-1065 and duocarmycin analogs: Magnitude of substituent electronic effects on functional reactivity” (Bioorg Med Chem Lett, 1996).
Values joined by “and” are separate entries in the source; they are usually repeats but may differ in a detail not shown here. Identical values can stand only once.

Experiments:
[1] = Half life at a pH of 3.0.; assay type: ADME; details: pH 3
[2] = system: L1210; experiment: Compound was tested in vitro for cytotoxic potency against L1210 leukemia.; assay type: functional, cell-based; details: Mus musculus
[3] = Aqueous solvolysis, K value at a pH of 3.0.; assay type: ADME; details: buffer, pH 3
[4] = Half life at a pH of 2.0.; assay type: ADME; details: pH 2
[5] = Aqueous solvolysis, K value at a pH of 2.0.; assay type: ADME; details: buffer, pH 2
[6] = Half life at 0.1 equivalent H+ and 20 equivalent CH3OH.; assay type: ADME
[7] = Kinetic constant at 0.25 equivalent H+ and 100 equivalent CH3OH.; assay type: ADME
[8] = Kinetic constant at 0.1 equivalent H+ and 20 equivalent CH3OH.; assay type: ADME
[9] = Half life at 0.25 equivalent H+ and 100 equivalent CH3OH.; assay type: ADME
[10] = Half life at 0.1 equivalent H+ and 500 equivalent CH3OH.; assay type: ADME
[11] = Kinetic constant at 0.1 equivalent H+ and 500 equivalent CH3OH.; assay type: ADME
[12] = Kinetic constant at 0.1 equivalent H+ and 100 equivalent CH3OH.; assay type: ADME

SMILES | half-life [1] [h] | IC50 [2] [nM] | k [3] [s⁻¹] | other results
CCS(=O)(=O)N1C[C@H]2C[C@@]23C1=CC(=O)c1ccccc13 | 383 | 24 | 5e-07 | –
Cc1c[nH]c2c1[C@@]13C[C@@H]1CN(C(=O)OC(C)(C)C)C3=CC2=O | – | – | 5.26e-06 | –
COc1ccc2c(c1)[C@@]13C[C@@H]1CN(C(=O)OC(C)(C)C)C3=CC2=O | 110 | 90 | 1.75e-06 | half-life [4]: 11.8 h; k [5]: 1.62e-05 s⁻¹
CNC(=O)N1C[C@H]2C[C@@]23C1=CC(=O)c1ccccc13 | 36 | 200 | 5.3e-06 | –
CC(C)(C)OC(=O)N1C[C@H]2C[C@@]23C1=CC(=O)c1ccc(C#N)cc13 | 213 | 20 | 9e-07 | half-life [6]: 9.2 h; k [7]: 7.4 s⁻¹; k [8]: 0.2 s⁻¹; half-life [9]: 0.26 h; T1/2 [10]: 0.92 h and 0.34 h; half-life [4]: 24.2 h; k [11]: 5.6 s⁻¹; k [12]: 2.1 s⁻¹; k [5]: 7.9e-06 s⁻¹
COC(=O)[C@]1(C)N=C2C(=O)C=C3N(C(=O)OC(C)(C)C)C[C@H]4C[C@@]34C2=C1O | – | 1000 | 1.75e-06 | –
CCC(=O)N1C[C@H]2C[C@@]23C1=CC(=O)c1ccccc13 | 96 | 110 | 2e-06 | –
CC(C)(C)OC(=O)N1C[C@H]2C[C@]23C=CC(=O)C=C13 | 0.01 | 18000 | 1.98e-06 | –
CC(C)(C)OC(=O)N1C[C@H]2C[C@@]23C1=CC(=O)c1ccccc13 | 133 | 80 | 1.45e-06 | k [5]: 1.53e-05 s⁻¹
COC(=O)c1cc2c([nH]1)C(=O)C=C1N(C(=O)OC(C)(C)C)C[C@H]3C[C@]123 | – | – | 1.08e-06 | –
COC(=O)N1C[C@H]2C[C@@]23C1=CC(=O)c1ccccc13 | 57 | 140 | 3.4e-06 | –
CC(C)(C)OC(=O)N1CC[C@H]2C[C@@]23C1=CC(=O)c1ccccc13 | 2.1 | 2000 | 9.07e-06 | –
